Source: ChEMBL document CHEMBL3992516, “Synthesis and SAR evaluation of novel thioridazine derivatives active against drug-resistant tuberculosis” (Eur J Med Chem, 2017)
Values after ≈ are worked out from the molar mass of the structure shown. Active and inactive are the calls of the source. The calls are words filed in the database; no cut-off is given here.

Legend:
[1] = system: Mycolicibacterium smegmatis; experiment: Antimycobacterial activity against Mycobacterium smegmatis MC2 155 ATCC 700084 by microplate alamar blue assay; type: functional
[2] = system: Mycobacterium tuberculosis; experiment: Antimycobacterial activity against Mycobacterium tuberculosis MC2 7000 by microplate alamar blue assay; type: functional
[3] = system: Mycobacterium tuberculosis; experiment: Antimycobacterial activity against Mycobacterium tuberculosis H37Rv ATCC 27294 incubated for 7 days measured 24 hrs post incubation by resazurin microtiter assay; type: functional
[4] = system: Mycobacterium tuberculosis; experiment: Antimycobacterial activity against drug-succeptible Mycobacterium tuberculosis CF73 incubated for 7 days measured 24 hrs post incubation by resazurin microtiter assay; type: functional
MRC5 = experiment: Cytotoxicity against human MRC5 cells assessed as decrease in cell viability after 24 hrs by resazurin reduction assay; type: cell-based; details: MRC5, 24 h
J774 = experiment: Cytotoxicity against mouse J774 cells assessed as decrease in cell viability after 24 hrs by resazurin reduction assay; type: cell-based; details: J774, 24 h
[5] = Selectivity index, ratio of IC50 for human MRC5 cells to MIC90 for drug-succeptible Mycobacterium tuberculosis CF73; type: toxicity; details: read-out: Selectivity Index
[6] = system: Mycolicibacterium smegmatis; experiment: Inhibition of efflux pump in Mycobacterium smegmatis assessed as increase in accumulation of ethidium bromide at 0.25 times MIC measured every min for 60 mins by fluorimetric method

Row | SMILES | MIC [1] [µg/mL] | MIC [2] [µg/mL] | MIC90 [3] [µg/mL] | MIC90 [4] [µg/mL] | IC50 (MRC5) [µg/mL] | IC50 (J774) [µg/mL] | selectivity ratio [5] | inhibition [6]
1 | c1ccc2c(c1)c1ccccc1n2CCC1CCCCN1 (stereo unspecified) | > 64 | > 64 |  |  |  |  |  | 
2 | NNC(=O)c1ccncc1 [ISONIAZID] | 4 (≈ 29.2 µM) | 0.125 (≈ 0.911 µM) | 0.03 (≈ 0.219 µM) | 0.03 (≈ 0.219 µM) |  |  |  | 
3 | CN1CCCCC1CCN1c2ccccc2Sc2ccccc21 (stereo unspecified) | 32 (≈ 98.6 µM) | 16 (≈ 49.3 µM) | > 64 | 47 (≈ 145 µM) |  |  |  | 
4 | CSc1ccc2c(c1)N(CCC1CCCCN1C)c1ccccc1S2 (stereo unspecified) [THIORIDAZINE] | 16 (≈ 43.2 µM) | 8 (≈ 21.6 µM) | 10 (≈ 27 µM) | 8 (≈ 21.6 µM) | 8.2 (≈ 22.1 µM) | 4.1 (≈ 11.1 µM) | 1 | 
5 | Clc1ccc2c(c1)N(CCC1CCCCN1)c1ccccc1S2 (stereo unspecified) | 16 (≈ 46.4 µM) | 4 (≈ 11.6 µM) | 26 (≈ 75.4 µM) | 11 (≈ 31.9 µM) | 10 (≈ 29 µM) | 10.7 (≈ 31 µM) | 0.9 | inactive
6 | CN1CCN(CCCn2ccc3ccccc32)CC1 | > 64 | > 64 |  |  |  |  |  | 
7 | Clc1ccc2c(c1)N(CCCN1CCN(c3ccccc3)CC1)c1ccccc1S2 | > 64 | > 64 |  |  |  |  |  | 
8 | CN1CCCCC1CCn1cnc2ccccc21 (stereo unspecified) | > 64 | > 64 |  |  |  |  |  | 
9 | CSc1ccc2c(c1)N(CCC1CCCCN1C(C)C)c1ccccc1S2 (stereo unspecified) | > 64 | > 64 |  |  |  |  |  | 
10 | CSc1ccc2c(c1)N(CCCN1CCN(C34CC5CC(CC(C5)C3)C4)CC1)c1ccccc1S2 | 64 (≈ 127 µM) | 64 (≈ 127 µM) |  |  |  |  |  | 
11 | c1ccc2c(c1)Sc1ccccc1N2CCC1CCCCN1 (stereo unspecified) | > 64 | > 64 | > 64 | 47 (≈ 151 µM) |  |  |  | 
12 | CSc1ccc2c(c1)N(CCCN1CCN(C3C4CC5CC(C4)CC3C5)CC1)c1ccccc1S2 (stereo unspecified) | 4 (≈ 7.91 µM) | > 64 | 43 (≈ 85 µM) | 98 (≈ 194 µM) |  |  |  | 
13 | CSc1ccc2c(c1)N(CCCN1CCN(c3ccccc3)CC1)c1ccccc1S2 | > 64 | > 64 |  |  |  |  |  | 
14 | CSc1ccc2c(c1)N(C(=O)CN1CCCCC1)c1ccccc1S2 |  |  | > 100 | > 100 |  |  |  | 
15 | CSc1ccc2c(c1)N(CCCN1CCSCC1)c1ccccc1S2 | > 64 | > 64 |  |  |  |  |  | 
16 | CO[C@H]1/C=C/O[C@@]2(C)Oc3c(C)c(O)c4c(O)c(c(/C=N/N5CCN(C)CC5)c(O)c4c3C2=O)NC(=O)/C(C)=C\C=C\[C@H](C)[C@H](O)[C@@H](C)[C@@H](O)[C@@H](C)[C@H](OC(C)=O)[C@@H]1C [RIFAMPIN] |  | 0.25 (≈ 0.304 µM) | 0.3 (≈ 0.365 µM) | 8 (≈ 9.72 µM) |  |  |  | 
17 | CSc1ccc2c(c1)N(C(=O)CN1CCN(C)CC1)c1ccccc1S2 | > 64 | > 64 |  |  |  |  |  | 
18 | CSc1ccc2c(c1)N(CCC1CCCCN1)c1ccccc1S2 (stereo unspecified) | 16 (≈ 44.9 µM) | 8 (≈ 22.4 µM) | 100 (≈ 280 µM) | > 100 |  |  |  | 
19 | CN1CCN(CCCN2c3ccccc3Sc3ccccc32)CC1 [PERAZINE] | 64 (≈ 189 µM) | 27 (≈ 79.5 µM) | 100 (≈ 295 µM) | > 100 |  |  |  | Active
20 | CSc1ccc2c(c1)N(CCC1CCCCN1Cc1ccccc1)c1ccccc1S2 (stereo unspecified) | 16 (≈ 35.8 µM) | 8 (≈ 17.9 µM) | > 100 | 37 (≈ 82.8 µM) |  |  |  | 
21 | CN1CCCCC1CCn1c2ccccc2c2ccccc21 (stereo unspecified) | > 64 | 64 (≈ 219 µM) | 60 (≈ 205 µM) | 39 (≈ 133 µM) |  |  |  | 
22 | c1ccc2c(c1)ccn2CCC1CCCCN1 (stereo unspecified) | 1.6 (≈ 7.01 µM) |  | 2.9 (≈ 12.7 µM) | 1 (≈ 4.38 µM) | 15 (≈ 65.7 µM) | 7.3 (≈ 32 µM) | 15 | inactive
23 | CN1CCCCC1CCN1c2ccccc2Sc2ccc(Cl)cc21 (stereo unspecified) | 16 (≈ 44.6 µM) | 8 (≈ 22.3 µM) | 19 (≈ 52.9 µM) | 16 (≈ 44.6 µM) | 13 (≈ 36.2 µM) | 8.4 (≈ 23.4 µM) | 0.8 | 
24 | Clc1ccc2c(c1)N(CCCN1CCSCC1)c1ccccc1S2 | > 64 | > 64 |  |  |  |  |  | 
25 | c1ccc2c(c1)ncn2CCC1CCCCN1 (stereo unspecified) | > 64 | > 64 | 100 (≈ 436 µM) | > 100 |  |  |  | 
26 | CSc1ccc2c(c1)N(CCCN1CCN(C)CC1)c1ccccc1S2 | 32 (≈ 83 µM) | 27 (≈ 70 µM) | 69 (≈ 179 µM) | 27 (≈ 70 µM) |  |  |  | Active
27 | CCCN1CCCCC1CCN1c2ccccc2Sc2ccc(SC)cc21 (stereo unspecified) | > 64 | 64 (≈ 161 µM) | 45 (≈ 113 µM) |  |  |  |  | 
28 | c1ccc(N2CCN(CCCN3c4ccccc4Sc4ccccc43)CC2)cc1 | > 64 | > 64 |  |  |  |  |  | 
